Results: patent US6520981B1, “Significance of dosimetry in photodynamic therapy of injured arteries” (The General Hospital Corporation, priority 1999, dated 2003)
Where “and” joins values, the source holds several entries; their conditions need not be identical. Equal entries are not always repeated. Entries after “also recorded” stand apart in the source; their conditions may differ. Where two headings read alike, the source gives them in different places. Marks after values point to notes of the source that are not given here.

What was measured:
[1] = test system: balloon-injured rat common carotid artery (intimal hyperplasia); assay: PDT with locally delivered methylene blue in balloon-injured rat carotid artery: light microscopy and histomorphometry; assay type: in vivo; conditions: 2 weeks
Method: Control animals included BI along and MB after BI alone. Arteries were analyzed after 2 weeks with morphometric evaluation (per group: n=6), and in situ hybridization for versican and pro-collagen type 1 gene expression (digitized image pixel analyses, n=9).
Common carotid artery balloon injury was performed using a 2-French Fogarty embolectomy catheter (Baxter Health Care Corporation, Edwards Division, Irvine, Calif.). […] In brief, the balloon was introduced into the common carotid artery and inflated with 0.65 mL of air. […] The catheter was connected via a three-way stopcock to a Stratham transducer for synchronous pressure monitoring (HP 78205C, Hewlett Packard, Mass.). […] Under low ambient light, the drug was injected into the common carotid artery with 180 mm HG for 2 minutes. […] The external carotid artery was ligated, and the blood flow was restored.
The animals were randomly assigned to the following 3 groups: Group PDT (n=6): balloon injury followed by application of photosensitizer and laser irradiation; Group PS (n=6): balloon injury followed by the photosensitizer MB application alone; Group BI (n=6): no treatment other than balloon-injury (BI) to the carotid artery.
Photodynamic Therapy: Five minutes after local delivery of MB, the common carotid artery was externally irradiated with 660 nm laser light, emitted by a diode laser (Alto-Surgeon SRG-3, Polaroid, Cambridge, Mass.) to deliver a total fluence of 100 J/cm^2 at an irradiance of 100 mW/cm^2. The diode laser was coupled to a 600-μm optical fiber through a microlens to obtain a uniform 1-cm spot. The targeted artery was submerged in 0.9% saline and placed on a right-angled reflective mirror to achieve uniform irradiation, as previously described. The irradiated vessel segment was marked with periadventitial India ink.
Harvest: Animals were sacrificed 14 days after surgery by an overdose of pentobarbital. Following sacrifice, the iliac artery was cannulated and the arterial system was flushed with saline and in situ perfusion-fixed at 150 mm Hg with 10% buffered formalin. The balloon-injured vessel segments and the contralateral carotid artery were excised and placed in fresh 10% buffered formalin. After embedding in paraffin, multiple 4 μm thick cross sections were obtained from the proximal, mid, and distal vessel segments.
Vessel Histomorphometry: The histologic analyses of the arteries stained with hematoxylin and eosin consisted of both a descriptive and quantitative morphometric evaluation. The morphometry of the arteries was measured using a digitizing measurement system (Color CCB Camera Model 2222-1010, COHU Inc., San Diego, Calif.) and analyzed using the Scion Image software (Scion Corporation, Frederick, MY). Intimal area, medial area, and vessel diameter, as delineated by the external elastic lamina, were measured and calculated as previously described. In addition, adventitial cells were counted manually and are expressed as the number of cells per high power microscopic field (×400). Because the area of the adventitia varies within the different specimens, high power fields were used for all quantitative measurements of adventitial cell numbers and gene expression in the in situ hybridization experiments.

versican mRNA = assay: Digoxigenin in situ hybridization, versican; assay type: in vivo, rat; conditions: group PDT: MB 250 μg/ml, 660 nm, 100 J/cm^2; 2 weeks
Description: (§1) Digoxigenin in situ hybridization: Groups for in situ hybridization included PDT, BI, and the uninjured contralateral artery (n=3). […] Complementary DNAs (cDNAs) for type I procollagen and versican core protein were obtained as PCR fragments with each gene specific primers in which reverse primers contain T7 RNA polymerase recognition sequence at their 5′ end. Primer sequences were as follows. […] Digoxigenin-labeled antisense RNA probes were synthesized using a RNA labeling kit (Boehringer, Mannheim, Germany) according to the manufacturers' instruction and the in situ hybridization protocol used with modifications as previously described. Arterial sections were deparafinized in xylene and rehydrated through graded ethanol solutions, washed, and treated with 5 μg/ml proteinase K (Boehringer) for 30 min at 37° C. […] The hybridized probes were detected using an alkaline phosphatase conjugated anti-digoxigenin monoclonal antibody (Boehringer), and the colored product was visualized using Nitro Blue tetrazolium (Boehringer) and 5-bromo-4-chlor-indonyl-phosphate (Boehringer) as substrates. […] For statistical analysis, the median data point of every specimen was assessed and used to compare control versus PDT procollagen type I and veriscan gene expression.
(§2) Statistical Evaluation: All values are expressed as a mean ± SD.

procollagen type I mRNA = assay: Digoxigenin in situ hybridization, procollagen type I; assay type: in vivo, rat; conditions: group PDT: MB 250 μg/ml, 660 nm, 100 J/cm^2; 2 weeks
Description: as §1, §2

[2] = test system: basic fibroblast growth factor (bFGF); assay: Immunohistochemistry for bFGF in arteries after BPD-PDT; assay type: in vivo, rat; conditions: 100 J/cm^2
Description: Harvest. […] The carotid artery was flushed with saline.
Immunohistochemistry. Immunohistochemistry for basic fibroblast growth factor (bFGF) was undertaken to verify possible differential, dose-dependent effects on this growth factor which resides in the vascular wall and is known to play an important role in the early development of IH in rats. Monoclonal antibody to bFGF (Zymogenetics, Seattle, Wash.) was used to verify the presence of bFGF in the specimens using the two-layer indirect immunoperoxidase technique previously described. Briefly, the primary antibody (1:1000) was labeled by biotinylated horse anti-mouse immunoglobulin (Vector Laboratories, Burlingame, Calif.) and counterstained with nuclear fast red (Sigma Chemical Co., St. Louis, Mo.). Normal arteries were used as positive control, and arteries stained with a nonspecific primary antibody were used as negative controls to exclude nonspecific binding by the primary or secondary antibody.

[3] = test system: balloon-injured rat common carotid artery (intimal hyperplasia); conditions: for Intimal Area: 690 nm
Method: Male Sprague Dawley rats (Charles River Breeding Laboratories, Wilmington, Mass.), weighing 350-450 g, were anesthetized with intramuscular Ketamine (75 mg/kg), Xylazine (5 mg/kg), and Atropine (40 μg/kg). A midline neck incision was performed and the left carotid artery was exposed. After clamping the common carotid and the internal carotid artery, a 2 F (French Fogarty embolectomy catheter (Baxter Health Care Corporation, LIS Division, Irvine, Calif.) was introduced into the common carotid artery via the external carotid artery. The common carotid artery was subsequently injured by inflating the balloon with 0.2 ml air and gently passing and rotating the catheter three times.
After balloon-injury, a 22 gauge polyethylene catheter was advanced through the external carotid arteriotomy into the distal portion of the common carotid artery and secured with a suture. The catheter was connected via three-way stopcock to a Statham transducer for synchronous pressure monitoring with a digital pressure manometer (HP 78205C, Hewlett Packard, Palo Alto, Calif.). The second generation photosensitizer benzoporphyrin-derivative monoacidic ring (BPD-MA Verteporfine®, Quadra Logic Technologies Inc., Vancouver, BC, Canada), provided as a liposomal preparation, was reconstituted in distilled water (2 mg/ml) and diluted in physiologic saline to a final concentration of 25 μg/ml. Once the arterial segment was isolated with microclamps under low ambient light, BPD was delivered at a pressure of 400 mm Hg for two minutes. […] Following aspiration of BPD from the arterial lumen, the artery was flushed with saline, the catheter was removed, and blood flow was restored to the internal carotid artery.
Photodynamic Therapy. Fifteen minutes following delivery of the PS to the artery wall, the common carotid artery was externally irradiated as previously described. Briefly, an argon-pumped dye laser (Coherent Innova I 100 and Coherent CR 599, Coherent, Palo Alto, Calif.) was tuned to 690 nm light at an irradiance of 100 mW/cm^2, coupled to a 600 μm optical fiber, and using a 5-mm focal length lens magnified to obtain a uniform 2-cm spot. The targeted artery was submerged in physiologic saline, placed on a right-angled reflective mirror, and optically isolated with black, light-impervious tape.
Experimental groups. The arteries were assigned to four different experimental groups: group 1 (n=6) and 2 (n=6) consisted of arteries which were pressurized with 0.5 μg/ml BPD and irradiated at a fluence of 50 and 100 J/cm^2 respectively. Group 3 (n=15) and 4 (n=4) were pressurized with 25 μg/ml BPD and irradiated at 100 or 200 J/cm^2 respectively.
Harvest. The animals were sacrificed 24 hours and 2 weeks after PDT. The carotid artery was flushed with saline. They were either in situ perfusion-fixed at 80 mm Hg with 10% buffered formalin for light microscopy or rinsed with saline, embedded in Tissue tek O.C.T. compound® (Miles Inc. Elkhart, IN) and stored at −70° C. for immunohistochemistry.
Histology. For each animal, the harvested artery was processed into three segments: proximal, mid, and distal. Multiple five-μm thick cross-sections were prepared from each specimen of the artery, and a representative from each segment was analyzed. All paraffin-embedded specimens were stained with hematoxylin and eosin. Arterial diameters, as delineated by the length of the internal elastic lamina (IEL circumference=πd), as well as intimal—and medial areas were measured using morphometric analysis with a camera lucida digitizing measurement system as previously described (Sigma Scan, Jandel Scientific, San Rafael, Calif.).

[4] = 15 minutes following delivery of BPD at 400 mm Hg for two minutes; previous studies; cited from earlier work
[5] = Observation of BPD-treated animals at harvest; assay type: in vivo, rat; conditions: rats after local delivery of BPD
intimal hyperplasia = conditions: for as long as 6 months after PDT; cited from earlier work
[6] = group PDT: MB 250 μg/ml, 660 nm, 100 J/cm^2
[7] = group PS: MB alone without irradiation
[8] = group 1: 0.5 μg/ml BPD, 50 J/cm^2, 2 weeks
[9] = group 2: 0.5 μg/ml BPD, 100 J/cm^2, 2 weeks
[10] = group 3: 25 μg/ml BPD, 100 J/cm^2, 2 weeks
[11] = group 4: 25 μg/ml BPD, 200 J/cm^2

Molecule: CN(C)c1ccc2nc3ccc(=[N+](C)C)cc-3sc2c1 [MB, methylene blue]
- Artery thrombosis (MB study, at harvest (14 days)): No artery thrombosis
- Signs of toxicity (rat, in vivo): no signs of toxicity
- Diameter [1, 6]: 0.95±0.04 mm
- Histology of arteries [1, 6]: without evidence of microthrombi, inflammation, or intimal thickening; also recorded: no IH was seen
- Medial Area [1, 6]: 0.063±0.004 mm^2
- Number of adventitial cells per high power field ([1]; group PDT: MB 250 μg/ml, 660 nm, 100 J/cm^2, ×400): 39±9.4
- IH area ([1]; group PDT: balloon injury, MB 250 μg/ml locally, 660 nm, 100 J/cm^2): 0±0 mm^2
- Histology of arteries [1, 7]: no MB-induced modulation of the vascular injury healing response; also recorded: IH formation was demonstrated
- Medial Area [1, 7]: 0.085±0.005 mm^2
- IH area ([1]; group PS: balloon injury, MB alone without irradiation): 0.183±0.05 mm^2
- Versican mRNA in adventitia, % of positive pixels per high power field (versican mRNA): 1.13%±0.39% and 1.11±0.37%
- Pro-collagen type I mRNA in adventitia, % of positive pixels per high power field (procollagen type I mRNA): 4.13%±1.25%

Molecule: benzoporphyrin-derivative monoacid ring [BPD]
- bFGF staining of the vascular wall ([2]; group 2 / stage II: 0.5 μg/ml BPD, 24 hours after PDT): evidence of bFGF in all layers of the vascular wall; also recorded: bFGF could still be detected in all layers of the vascular wall; also recorded: positive staining for bFGF in all layers of the vascular wall; also recorded: avid brown staining in all layers of the vascular wall
- bFGF staining of the vascular wall ([2]; group 3 / stage III: 25 μg/ml BPD, two weeks after PDT): evidence for bFGF in the flat cells, presumably endothelial cells, at the luminal surface; also recorded: positive bFGF staining only of endothelial cells in the intima and fibroblasts in the adventitia
- Intimal hyperplasia, histology ([3]; group 1 / stage I: 0.5 μg/ml BPD, 50 J/cm^2, 2 weeks): significant IH
- Diameter [3, 8]: 0.93 ± 0.02 mm
- Medial Area [3, 8]: 0.18 ± 0.01 mm^2
- Intimal Area [3, 8]: 0.18±0.03 mm^2
- Diameter [3, 9]: 0.95 ± 0.06 mm
- Medial Area [3, 9]: 0.18 ± 0.05 mm^2
- Intimal Area [3, 9]: 0.14±0.03 mm^2
- Diameter [3, 10]: 0.82 ± 0.04 mm
- Medial Area [3, 10]: 0.10 ± 0.02† mm^2
- Intimal Area [3, 10]: 0.01 ± 0.01*‡ mm^2
- Diameter [3, 11]: 0.91 ± 0.03 mm
- Medial Area [3, 11]: 0.17 ± 0.01 mm^2
- Photosensitizer fluorescence in the arterial wall [4]: detected through the entire arterial wall
- Signs of systemic phototoxicity [5]: no signs of systemic phototoxicity

Molecule: chloraluminum sulfonated phthalocyanin
- Inhibition of IH after PDT (intimal hyperplasia): inhibition of IH without arterial degeneration
